Earlier results in US20070136825A1, “Fusion proteins useful for detecting analytes” (priority 2001, published 2007).

Conditions: glucose; GGBP alone; Zukin et al.; read-out: Kd Binding protein, glucose

## GGBP: glucose/galactose binding protein (mglB, E. coli), SEQ ID NO:4
  Kd: 0.21 µM
